Results reported in ChEMBL document CHEMBL3392952, “Structure guided lead generation for M. tuberculosis thymidylate kinase (Mtb TMK): discovery of 3-cyanopyridone and 1,6-naphthyridin-2-one as potent inhibitors” (J Med Chem, 2015).
Values after ≈ are worked out from the molar mass of the structure shown. Active and inactive are the calls of the source. No cut-off for these calls is given here.

How the values were obtained:
Thymidylate kinase = molecular target: T1, Thymidylate kinase (Mycobacterium tuberculosis, UniProt P9WKE1); test: Inhibition of Mycobacterium tuberculosis thymidylate kinase activity by pyruvate kinase-lactate dehydrogenase coupled assay
T1 sequence (P9WKE1 whole entry): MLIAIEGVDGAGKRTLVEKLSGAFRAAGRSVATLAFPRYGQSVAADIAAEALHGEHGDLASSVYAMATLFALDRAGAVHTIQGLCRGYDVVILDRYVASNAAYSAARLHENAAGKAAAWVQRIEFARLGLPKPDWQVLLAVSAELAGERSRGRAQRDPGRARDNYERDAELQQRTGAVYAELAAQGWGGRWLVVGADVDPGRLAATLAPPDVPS

[1] = molecular target: T2, Thymidylate kinase (Homo sapiens) (UniProt P23919); test: Inhibition of human thymidylate kinase assessed as […] up to 200 uM
T2 sequence (whole entry): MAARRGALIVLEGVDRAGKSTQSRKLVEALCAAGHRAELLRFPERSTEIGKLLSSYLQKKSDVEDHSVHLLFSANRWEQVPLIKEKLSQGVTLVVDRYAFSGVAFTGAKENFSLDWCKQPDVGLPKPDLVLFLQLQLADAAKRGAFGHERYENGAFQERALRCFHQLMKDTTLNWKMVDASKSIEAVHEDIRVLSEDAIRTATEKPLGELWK

[2] = test system: Mycobacterium tuberculosis; test: Antitubercular activity against Mycobacterium tuberculosis assessed as growth inhibition […] by standard microdilution method; assay type: functional
[3] = Dissociation constant, pKa of the compound; assay type: physicochemical
Haemophilus influenzae = test: Inhibition of Haemophilus influenza thymidylate kinase
Staphylococcus aureus = test: Inhibition of Staphylococcus aureus thymidylate kinase
Escherichia coli = test: Inhibition of Escherichia coli thymidylate kinase

Structure (SMILES) | IC50 (Thymidylate kinase) | MIC [2] | also measured
CSc1cc(-c2ccccn2)[nH]c(=O)c1C#N | 18000 nM |  | 
CSc1cc(-c2cccs2)oc(=O)c1C#N | > 50000 nM |  | 
COc1cccc(-c2cc(SC)c(C#N)c(=O)[nH]2)c1 | 1500 nM |  | Activity [1]: inactive
CCCc1cc2[nH]c(=O)ccc2c(C)n1 | 590000 nM |  | 
CS(=O)(=O)c1cc(-c2cccc(Br)c2)[nH]c(=O)c1C#N | 100 nM | 8 µg/mL (≈ 22.7 µM) | 
COc1cccc(-c2cc(-c3ccc(N)cc3)c(C#N)c(=O)[nH]2)c1 | 1010 nM |  | 
COc1ccc(-c2cc(SC)c(C#N)c(=O)[nH]2)cc1 | 7700 nM |  | 
CS(=O)(=O)c1cc(-c2cccc(Br)c2)[nH]c(=O)c1 | > 25000 nM | > 32 µg/mL | 
CS(=O)(=O)c1cc(-c2cccc(OCc3cccc(Cl)c3)c2)[nH]c(=O)c1C#N | 22 nM | 4 µg/mL (≈ 9.64 µM) | 
N#Cc1c(-c2ccc(C(=O)O)cc2)c2c([nH]c1=O)-c1cccc(-c3cn[nH]c3)c1CC2 | 2 nM | > 32 µg/mL | pKa [3]: 4.4
CCc1cc2[nH]c(=O)c(C#N)c(-c3ccccc3)c2c(C)n1 | 350 nM | > 32 µg/mL | 
COc1cccc(-c2nc(SC)c(C#N)c(=O)[nH]2)c1 | 8000 nM |  | 
COc1ccccc1-c1cc(SC)c(C#N)c(=O)[nH]1 | > 50000 nM |  | 
COc1cccc(-c2cc(-c3ccc(C(=O)O)cc3)c(C#N)c(=O)[nH]2)c1 | 420 nM |  | 
C[S+]([O-])c1cc(-c2cccc(Br)c2)[nH]c(=O)c1C#N (stereo not given) | 140 nM | 4 µg/mL (≈ 11.9 µM) | Activity (Haemophilus influenzae): inactive; Activity (Staphylococcus aureus): inactive; Activity (Escherichia coli): inactive
COc1cccc2c1CCc1c-2[nH]c(=O)c(C#N)c1-c1ccc(C(=O)O)cc1 | 5 nM | > 32 µg/mL | pKa [3]: 4.4
N#Cc1c(-c2ccc(C(=O)O)cc2)c2c([nH]c1=O)-c1cccc(O)c1CC2 | 3 nM | > 32 µg/mL | Activity [1]: inactive; pKa [3]: 4.4
CS(=O)(=O)c1c2c([nH]c(=O)c1C#N)-c1ccccc1OC2 | 30000 nM | 32 µg/mL (≈ 106 µM) | 
COc1cccc(-c2cc(-c3ccc(NC(C)=O)cc3)c(C#N)c(=O)[nH]2)c1 | 430 nM |  | 
CCNC(=O)Nc1ccc(-c2c3c([nH]c(=O)c2C#N)-c2cccc(OC)c2CC3)cc1 | 17 nM | > 32 µg/mL | 
CC(C)c1ccc(COc2cccc(-c3cc([S+](C)[O-])c(C#N)c(=O)[nH]3)c2)cc1 (stereo not given) | 32 nM | 2 µg/mL (≈ 4.92 µM) | 
CSc1cc(-c2cccc(Cl)c2)[nH]c(=O)c1C(N)=O | 14300 nM |  | 

Structure (SMILES) | IC50 (Thymidylate kinase) | MIC [2] | also measured
COc1cccc(-c2cc(-c3cccc(N)c3)c(C#N)c(=O)[nH]2)c1 | 1200 nM |  | 
CCc1cc2[nH]c(=O)c(C)c(C)c2c(CC)n1 | 133000 nM |  | 
N#Cc1c(-c2ccc(C(=O)NS(=O)(=O)c3ccccc3)cc2)c2c([nH]c1=O)-c1ccccc1OC2 | 2 nM | > 32 µg/mL | pKa [3]: 5
C[S+]([O-])c1cc(-c2cccc(OC(F)(F)F)c2)[nH]c(=O)c1C#N (stereo not given) | 240 nM | 8 µg/mL (≈ 23.4 µM) | Activity (Haemophilus influenzae): inactive; Activity [1]: inactive; Activity (Staphylococcus aureus): inactive; Activity (Escherichia coli): inactive
Cc1nccc2nc(O)c(C#N)cc12 | 634000 nM |  | 
CCNC(=O)Nc1ccc(-c2cc(-c3cccc(OC)c3)[nH]c(=O)c2C#N)cc1 | 250 nM |  | Activity [1]: inactive
CSc1cc(-c2ccccc2)nc(O)c1C#N | 1900 nM |  | 
CC(C)CCOc1cccc(-c2cc([S+](C)[O-])c(C#N)c(=O)[nH]2)c1 (stereo not given) | 330 nM | 4 µg/mL (≈ 11.6 µM) | 
N#Cc1c(-c2ccc(C(=O)O)cc2)c2c([nH]c1=O)-c1ccccc1CC2 | 6 nM |  | 
CSc1cc(-c2cccs2)[nH]c(=O)c1C#N | 3600 nM |  | 
COc1cccc(-c2cc(-c3cccc(C(=O)O)c3)c(C#N)c(=O)[nH]2)c1 | 2730 nM |  | 
CCc1cc2[nH]c(=O)c(C#N)c(-c3ccc(NS(C)(=O)=O)cc3)c2c(C)n1 | 200 nM | > 32 µg/mL | 
COc1cccc(-c2cc(-c3cccnc3)c(C#N)c(=O)[nH]2)c1 | 2630 nM |  | 
CSc1cc(-c2cccc(Cl)c2)[nH]c(=O)c1C#N | 1900 nM |  | 
CC(C)c1ccc(COc2cccc3c2CCc2c-3[nH]c(=O)c(C#N)c2-c2ccc(C(=O)O)cc2)cc1 | 1 nM | > 32 µg/mL | pKa [3]: 4.4
CC(C)c1ccc(COc2cccc(-c3cc(-c4ccc(C(=O)O)cc4)c(C#N)c(=O)[nH]3)c2)cc1 | 6 nM |  | 
CCCc1cc2[nH]c(=O)c(C#N)c(-c3ccccc3)c2c(C)n1 | 1000 nM | > 32 µg/mL | 
CS(=O)(=O)NC(=O)c1ccc(-c2c3c([nH]c(=O)c2C#N)-c2ccccc2OC3)cc1 | 5 nM | > 32 µg/mL | Activity [1]: inactive; pKa [3]: 3.9
CCCc1cc2[nH]c(=O)c(C#N)c(-c3ccc(NS(C)(=O)=O)cc3)c2c(C)n1 | 2100 nM | > 32 µg/mL | 
COc1cccc(-c2cc(-c3ccc(C(=O)O)cc3)c(C)c(=O)[nH]2)c1 | 1200 nM |  | 
C[S+]([O-])c1cc(-c2cccs2)[nH]c(=O)c1C#N (stereo not given) | 820 nM | 12 µg/mL (≈ 45.4 µM) | 
